Experiments:
[1] = marketed in the US for long-term chronic breast cancer therapy (five years and beyond); cited from earlier work
Women with menorrhagia [2] = assay: Safety profile of anastrozole compared to placebo in the same study; type: in vivo; conditions: 26 days of anastrozole
Source text: (§1) Women with menorrhagia were enrolled in the study and divided into two groups—one as Treatment Group and the other as Control Group. Administering of anastrozole to the women in the Treatment Group started on the second day of the menstrual cycle and lasted for 26 days. In some cases, the administration started on the third day due to site scheduling limitations. Conversely, the women in the Control Group received placebo during the same period. Data on the mean menstrual bleeding severity score were recorded on a daily basis according to the following categories of vaginal bleeding: 0=none; 1=spotting; 2=mild bleeding; 3=moderate bleeding; and 4=heavy bleeding.
The observation above was contrasted by women who received anastrozole for 26 consecutive days (Treatment Group). On Study Day 1, which corresponds to Cycle Day 2 as with the Control Group, the women were administered 20 mg of anastrozole in the clinic office and then […] for the remaining 25 days.

Women with menorrhagia [3] = assay: Daily menstrual bleeding severity score in women receiving anastrozole for 26 days vs placebo; type: in vivo
Source text: as §1
In the Control Group, within 6 days, the average score was down to about zero. Over the next 20 days, the fluctuations in menstrual bleeding severity would also be considered typical in that some women experience “breakthrough bleeding” which was reflected in the deviation from zero that would be expected in models of normal cycles, but was not reflected in reality. This was particularly notable during the second half of the menstrual cycle.
The observation above was contrasted by women who received anastrozole for 26 consecutive days (Treatment Group). […]

[4] = system: healthy premenopausal women; conditions: 5, 10, 15 and 20 mg, single and multiple dose; 26 healthy premenopausal women; cited from earlier work

## CC(C)(C#N)c1cc(Cn2cncn2)cc(C(C)(C)C#N)c1 [anastrozole]
[1]
  general safety: generally accepted as safe drugs
Women with menorrhagia [2]
  safety liabilities: does not appear to have any significant safety liabilities
Women with menorrhagia [3]; 20 mg on Study Day 1, then 10 mg/day for remaining 25 days, contrasted with placebo
  reported bleeding over the remaining days of treatment: no bleeding or spotting reported until the very end of the cycle
Women with menorrhagia [3]; score 0=none to 4=heavy bleeding, Study Day 1 = Cycle Day 2, 20 mg anastrozole on day 1
  mean bleeding severity at the start of the treatment interval: ~3
[4]
  adverse events: no severe, serious, or otherwise significant adverse events

## C=C1C[C@@H]2[C@H](CC[C@]3(C)C(=O)CC[C@@H]23)[C@@]2(C)C=CC(=O)C=C12 [exemestane]
[1]
  general safety: generally accepted as safe drugs

## N#Cc1ccc(C(c2ccc(C#N)cc2)n2cncn2)cc1 [letrozole]
[1]
  general safety: generally accepted as safe drugs
